Data as given in ChEMBL document CHEMBL1128363, “Design, synthesis, biology, and conformations of bicyclic alpha-melanotropin analogues” (J Med Chem, 1995).
The source made the active and inactive calls. The calls are words filed in the database; no cut-off is given here. Where a SMILES comes first, the peptide text is derived from it. [ ]: non-standard residue; d: D form.

Key:
Assay type in all cases: functional
[1] = Activity expressed as EC50 was measured in frog.
[2] = system: frog; assay: Potency measured in frog where (-) indicates peptide is not long acting.
[3] = Activity expressed as EC50 was measured in lizard.
[4] = system: lizard; assay: Potency measured in lizard where (+) indicates peptide is long acting and (-) indicates peptide is not long acting.
[5] = system: lizard; assay: Potency of compound was measured in lizard; Inactive
[6] = system: lizard; assay: Potency of compound was measured in lizard where (-) indicates peptide is not prolonged acting.
[7] = system: frog; assay: Potency of compound was measured in frog where (+) indicates peptide is prolonged acting and (-) indicates peptide is not prolonged acting.
[8] = system: frog; assay: Potency measured in frog where (+) indicates peptide is long acting.
[9] = system: frog; assay: Potency of compound was measured in frog; Inactive
[10] = Activity of compound expressed as EC50 was measured in frog; Inactive
[11] = Activity of compound expressed as EC50 was measured in lizard; Inactive
[12] = system: lizard; assay: Potency of compound was measured in lizard where (+) indicates peptide is prolonged acting.
[13] = system: frog; assay: Potency of compound was measured in frog

N=C(N)NCCC[C@H]1NC(=O)[C@@H](Cc2ccccc2)NC(=O)[C@@H](Cc2c[nH]cn2)NC(=O)CNC(=O)CNC(=O)[C@H](Cc2c[nH]c3ccccc23)NC1=O
EC50 [1]: 1200 nM

CC(=O)N[C@@H]1CSSC[C@H]2NC(=O)[C@@H](Cc3c[nH]c4ccccc34)NC(=O)[C@H](CCCN=C(N)N)NC(=O)[C@H](Cc3ccccc3)NC(=O)[C@H](Cc3c[nH]cn3)NC(=O)[C@@H](CCC(=O)NCCCC[C@@H](C(N)=O)NC2=O)NC1=O
Potency [2]: 0.0035 | EC50 [1]: 28 nM | EC50 [3]: 400 nM | Potency [4]: 0.0025

CCCC[C@H](NC(C)=O)C(=O)NC1CCCNC(=O)CC[C@H](C(=O)N[C@@H](Cc2c[nH]c3ccccc23)C(=O)NCC(=O)N[C@@H](CCCCN)C(N)=O)NC(=O)[C@@H](Cc2ccccc2)NC(=O)[C@@H](Cc2c[nH]cn2)NC1=O (stereo in doubt)
Potency [2]: 0.001 | EC50 [1]: 1000 nM | Potency [5]: inactive

CC(=O)N[C@@H]1CSSC[C@H](C(=O)N[C@H](CCCCN)C(N)=O)NC(=O)[C@@H](Cc2c[nH]c3ccccc23)NC(=O)[C@H](CCCN=C(N)N)NC(=O)C(Cc2ccccc2)NC(=O)[C@H](Cc2c[nH]cn2)NC(=O)[C@@H](CCC(=O)O)NC1=O (stereo in doubt)
Potency [2]: 2.5 | EC50 [1]: 0.04 nM | Potency [6]: 3 | EC50 [3]: 0.3 nM

CC(=O)N[C@@H]1CSSC[C@H]2NC(=O)[C@@H](Cc3c[nH]c4ccccc34)NC(=O)[C@H](CCCN=C(N)N)NC(=O)[C@H](Cc3ccccc3)NC(=O)[C@H](Cc3c[nH]cn3)NC(=O)[C@@H](CC(=O)NCCCC[C@@H](C(N)=O)NC2=O)NC1=O
Potency [7]: 0.018 | EC50 [1]: 6 nM | EC50 [3]: 33 nM | Potency [4]: 0.03

CC(=O)N[C@@H]1CSSC[C@@H](C(N)=O)NC(=O)[C@@H]2CCCCNC(=O)C[C@@H](NC1=O)C(=O)N[C@@H](Cc1c[nH]cn1)C(=O)N[C@H](Cc1ccccc1)C(=O)N[C@@H](CCCN=C(N)N)C(=O)N[C@H](Cc1c[nH]c3ccccc13)C(=O)N2
Potency [8]: 0.003 | EC50 [1]: 33 nM | EC50 [3]: 33 nM | Potency [4]: 0.03

CC(=O)N[C@@H](Cc1c[nH]cn1)C(=O)N[C@H](Cc1ccccc1)C(=O)N[C@@H](CCCN=C(N)N)C(N)=O
Potency [9]: inactive | EC50 [10]: Not Active | Potency [5]: inactive | EC50 [11]: Not Active

CC(=O)N[C@@H]1CSSC[C@H]2NC(=O)[C@@H](Cc3c[nH]c4ccccc34)NC(=O)[C@H](CCCN=C(N)N)NC(=O)C(Cc3ccccc3)NC(=O)[C@H](Cc3c[nH]cn3)NC(=O)[C@@H](CC(=O)NCCCC[C@H](C(=O)N3CCC[C@@H]3C(=O)N[C@H](C(N)=O)C(C)C)NC2=O)NC1=O (stereo in doubt)
Potency [8]: 0.04 | EC50 [1]: 2.5 nM | EC50 [3]: 33 nM | Potency [4]: 0.03

CC(=O)N[C@@H](Cc1cnc[nH]1)C(=O)N[C@H](Cc1ccccc1)C(=O)N[C@@H](CCCNC(=N)N)C(=O)N[C@@H](Cc1c[nH]c2ccccc12)C(N)=O
Potency [2]: 0.001 | EC50 [1]: 150 nM | Potency [6]: 0.1 | EC50 [3]: 10 nM

CC(=O)N[C@H](Cc1ccccc1)C(=O)N[C@@H](CCCN=C(N)N)C(=O)N[C@@H](Cc1c[nH]c2ccccc12)C(N)=O (Ac-[dF]-Arg-Trp-NH2)
Potency [8]: 1e-05 | EC50 [1]: 10000 nM | EC50 [3]: 1000 nM | Potency [12]: 0.001

CC(=O)N[C@@H](Cc1c[nH]cn1)C(=O)N[C@@H](Cc1ccccc1)C(=O)N[C@@H](CCCN=C(N)N)C(=O)N[C@@H](Cc1c[nH]c2ccccc12)C(N)=O
Potency [2]: 5e-06 | EC50 [1]: 30000 nM | Potency [6]: 0.0014 | EC50 [3]: 15000 nM

CCCC[C@H](NC(C)=O)C(=O)N[C@@H]1CC(=O)NCCCC[C@H](C(N)=O)NC(=O)C(C)(C)NC(=O)[C@@H](Cc2c[nH]c3ccccc23)NC(=O)[C@H](CCCN=C(N)N)NC(=O)[C@@H](Cc2ccccc2)NC(=O)[C@@H](Cc2c[nH]cn2)NC1=O
Potency [13]: 1 | EC50 [1]: 0.1 nM
